How the values were obtained:
[1] = tested on: PC12 cells (native TRPC3 channel complexes); assay: Whole-cell patch-clamp recordings in PC12 cells; assay type: cell-based, rat; settings: 50 µM artemisinin, whole cell
Protocol: The recordings of TRPC3, TRPC6, or TRPC7 membrane currents in HEK293 or PC12 cells were realized by using a Multiclamp 700B amplifier with a Digidata 1440A digitizer controlled by the PClamp 10 software (all Molecular Devices, Sunnyvale, CA, U.S.A.). Recordings were obtained at room temperature either in the whole-cell or in an outside-out configuration as indicated. Cells were seeded as described above, but at lower density, mounted in a chamber (Warner Instruments, Hamden, CT; U.S.A.), placed onto the stage of an inverted microscope, and perfused with required solution. The standard extracellular solution contained 140 mM NaCl, 5 mM CsCl, 2 mM MgCl2, 1 mM CaCl2, 10 mM HEPES, and 0.035% BSA adjusted to pH 7.4 with NaOH. The composition of standard intracellular solution was 140 mM CsCl, 1 mM MgCl2, 5 mM EGTA, and 10 mM HEPES adjusted to pH 7.25 with CsOH; the osmolarity was 295 mOsm l^−1. In outside-out measurements, the pipette solution contained 5 mM EGTA and 1.1 mM CaCl2 to achieve a calculated free Ca^2+ concentration of 100 nM.
Patch pipettes were pulled from borosilicate glass capillaries BG150F-8P (Science Products, Hofheim, Germany) with a PIP6 pipette puller (HEKA Elektronik, Lambrecht, Germany). […] In all whole-cell measurements, the series resistance was lower than 13 MΩ, and compensated by 70%. If the access was unstable during the experiment (increase in series resistance by more than 15% at the end of the experiment), the cell was omitted from the analysis. To record current/voltage (I/V) curves, voltage ramps (400 mV s^−1) ranging from –100 to +100 mV were applied. Currents were filtered at 3 kHz with a four-pole Bessel filter and sampled at 10 kHz. […]
Figure 9 Artemisinin-induced ionic currents in HEK293 cells and in PC12 cells are sensitive to established TRPC3 inhibitors. […] Concentration–response curves were normalized to responses measured without an inhibitor (controls), and IC50 values were obtained by fitting a four-parameter Hill equation to the data. […]

[2] = target: T1, TRPC3 (Homo sapiens, UniProt Q13507); assay: Fluo-4 Ca2+ influx assay in HEK TRPC3-YFP cell suspensions; assay type: cell-based
T1 construct: expressed in transfected cells
T1 sequence (Q13507 1-848 isoform Q13507-3): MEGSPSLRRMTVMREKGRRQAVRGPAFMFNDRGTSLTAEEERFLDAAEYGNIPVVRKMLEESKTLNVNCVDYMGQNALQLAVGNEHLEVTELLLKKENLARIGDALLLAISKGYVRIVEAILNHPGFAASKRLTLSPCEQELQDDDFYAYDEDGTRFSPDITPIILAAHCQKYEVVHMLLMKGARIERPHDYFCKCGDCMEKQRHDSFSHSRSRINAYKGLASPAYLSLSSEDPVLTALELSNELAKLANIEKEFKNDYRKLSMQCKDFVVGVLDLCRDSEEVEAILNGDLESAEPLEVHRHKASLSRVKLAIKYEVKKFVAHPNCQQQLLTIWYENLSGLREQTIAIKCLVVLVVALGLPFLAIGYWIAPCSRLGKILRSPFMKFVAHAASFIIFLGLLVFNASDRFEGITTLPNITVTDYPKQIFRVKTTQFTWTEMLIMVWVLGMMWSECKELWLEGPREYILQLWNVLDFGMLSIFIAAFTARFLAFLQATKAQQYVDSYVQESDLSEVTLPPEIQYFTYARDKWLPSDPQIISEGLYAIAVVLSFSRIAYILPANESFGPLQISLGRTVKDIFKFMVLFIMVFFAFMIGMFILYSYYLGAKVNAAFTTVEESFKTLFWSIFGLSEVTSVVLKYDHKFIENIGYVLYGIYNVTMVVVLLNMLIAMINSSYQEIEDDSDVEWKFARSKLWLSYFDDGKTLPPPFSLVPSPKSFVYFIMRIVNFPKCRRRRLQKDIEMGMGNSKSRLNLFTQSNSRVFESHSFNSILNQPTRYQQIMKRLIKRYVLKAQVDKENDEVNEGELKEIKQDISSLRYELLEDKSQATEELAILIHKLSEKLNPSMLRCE

C[C@@H]1CC[C@H]2[C@@H](C)C(=O)O[C@@H]3O[C@@]4(C)CC[C@@H]1[C@]32OO4 [artemisinin]
currents in PC12 cells [1]: induced a Ca^2+ influx and TRPC3-like currents | fluorescence signal of the Ca2+ indicator in primary screen ([2]; 20 µM, acute addition): immediate and transient increase in the fluorescence signal | EC50 of artemisinin under simultaneous application of OAG ([2]; 10–100 µM OAG co-applied): not affected | EC50 ([2]; fluo-4, HEK TRPC3-YFP cell suspensions, read-out: potency to activate Ca2+ entry through TRPC3): 32.8 µM | Ca2+ influx signals after preincubation with OAG ([2]; preincubation with 500 nM, 1 µM, or 5 µM OAG): did not induce stronger Ca^2+ influx signals

Source: publication PMC7016953 (Cells, 2020)
